System: breast cancer cells
Assay: Breast cancer cell inhibition in vitro
Assay type: cell-based
Settings: by inhibiting RLIP

| Compound | killing of breast cancer cells |
| --- | --- |
| O=C(N/N=C1/c2ccccc2-c2nc3nonc3nc21)c1ccccc1O [TTUHSC-SS-A4] | kill breast cancer cells at low concentrations |
| [H]/N=C(\N)Nc1nc(-c2ccccc2)c2cc(F)ccc2n1 [TTUHSC-SS-B9] | kill breast cancer cells at low concentrations |
| O=c1cc(COc2cccc(-n3cnnn3)c2)c2ccccc2[nH]1 [TTUHSC-SS-C2] | kill breast cancer cells at low concentrations |
| c1ccc(-c2nnc(NCc3nc4ccccc4[nH]3)c3ccccc23)cc1 [TTUHSC-SS-C4] | kill breast cancer cells at low concentrations |
| N#Cc1nc(-c2ccccn2)c2c(c1-c1ccccc1)CCC2 [TTUHSC-SS-E4] | kill breast cancer cells at low concentrations |

Reference: US20230414610A1, “THERAPIES FOR CANCER USING SMALL MOLECULES THAT BIND TO AND INHIBIT RAIL INTERACTING PROTEINS” (Texas Tech University System, priority 2020, published 2023)
